In brackets after ≈: the same amount, converted by molar mass.
Experiments:
in vitro = in vitro ADME; details: rat intestinal microsomes, NADPH, 37° C.
Procedure: 5 μL of a 10 mM stock solution of the Examples were dissolved in 495 μL acetonitrile to afford 500 μL working solution.
The appropriate amount of β-Nicotinamide adenine dinucleotide phosphate reduced form, tetrasodium salt; NADPH-4Na (NADPH) powder was weighed and diluted into a 10 mM MgCl2 solution (working solution concentration: 10 unit/mL; final concentration in reaction system: 1 unit/mL).
The appropriate concentrations of rat intestinal microsome (Xenotech, cat. No R1000.1) working solutions were prepared in 100 mM potassium phosphate buffer.
Cold (4° C.) acetonitrile (ACN) containing 200 ng/mL tolbutamide and 200 ng/mL labetalol as internal standards (IS).
Incubation plates were pre-incubated for 10 minutes at 37° C. with constant shaking. 54 μL was transferred from Incubation plates into a blank plate and then 6 μL NADPH cofactor and 180 μL quenching solution was added to the Incubation plates. 5 μL Example working solution (100 μM) was also added to the Incubation plates and mixed thoroughly.
The T60 Incubation plate was mixed thoroughly and for the 0-min timepoint, 54 μL was transferred into a Quenching plate (containing 180 μL quenching solution and 6 μL NADPH cofactor). 44 μL NADPH cofactor was then added to the T60 Incubation plate and incubated at 37° C. for 60 min while shaking. At 5, 15, 30, 45, and 60 min, 60 μL samples were transferred from T60 Incubation plate into a Quenching plate (containing 180 μl quenching solution). For the NCF60 Incubation plate, 50 μL of buffer was added and mixed thoroughly before incubation at 37° C. for 60 min while shaking, at the 60-min time point 60 μL was transferred to the Quenching plate (containing 180 μl quenching solution). All sampling plates were shaken for 10 min, then centrifuged at 4000 rpm for 20 minutes at 4° C. 80 μL supernatant was transferred into 240 μL HPLC water, and mixed for 10 min.

[1] = Stability in aqueous media (FaSSIF, SGF, PBS); type: physicochemical; details: for FaSSIF (pH 6.5) % remaining 1 h / FaSSIF (pH 6.5) % remaining 6 h / FaSSIF (pH 6.5) % remaining 24 h: FaSSIF pH 6.5, 37° C.; for PBS (pH 7.4) % remaining 1 h / PBS (pH 7.4) % remaining 6 h / PBS (pH 7.4) % remaining 24 h: PBS pH 7.4, 37° C.; for SGF (pH 1.2) % remaining 1 h / SGF (pH 1.2) % remaining 6 h / SGF (pH 1.2) % remaining 24 h: SGF pH 1.2, 37° C.
Procedure: 10 μL of a 10 mM stock solution of the Examples were dissolved in 490 μL DMSO to afford […] working solution SGF (pH 1.2):
Dissolve 0.04 g NaCl and 0.064 g pepsin in 0.14 mL HCl and add sufficient water to 20 mL volume. The pH of the test solution was 1.20±0.05.
0.056% (w/v) lecithin, 0.161% (w/v) sodium taurocholate, 0.39% (w/v) monobasic potassium phosphate, 0.77% (w/v) potassium chloride, deionized H2O. The pH of the test solution was 6.5±0.05.
30 mL of 10×PBS (pH7.4) was added into a 50 mL flask and diluted with water. The solution was mixed well and adjusted to pH 7.4 with 1 N HCl.
2 μL of the 200 μL working solution of the Examples was added into 96-deep-well plates for TO, T60, T120, T360 and T1440 timepoints. Duplicates were prepared.
Stability studies were commenced by the addition of 198 μL of the required media (e.g. Simulated Gastric Fluid pH 1.2 [SGF], Simulated Fasted State Intestinal Fluid pH 6.5 [FaSSIF]) and Phosphate Buffered Saline pH 7.4 [PBS]) to each well except TO. The samples were incubated at 37° C. at 600 rpm for the appointed time. The samples at the corresponding timepoint were removed and immediately mixed with 400 μL of cold acetonitrile containing 200 ng/mL tolbutamide and labetalol (internal standard). The samples were centrifuged at 4000 rpm at 4° C. for 20 minutes. 60 μL of the supernatant was removed and mixed with 180 μL purified water and thoroughly mixed and analysed by LCMS (Shimadzu LC 30-AD, ACQUITY UPLC BEH Phenyl 1.7 um 2.1*50 mm Part No. 186002884, with mobile phase A: 0.1% formic acid in water, mobile phase B: 0.1% formic acid in acetonitrile). Formation of parent was also monitored as a metabolite.
Samples were analysed by Mass Spectrometry QTRAP 6500+.

[2] = Solubility in simulated fluids (kinetic solubility, 24 hours); type: physicochemical; details: thermodynamic from solid, 24 hour timepoint, room temperature
Procedure: A known quantity of the Examples and control compounds were weighed into a suitable vessel (whatman miniuniprep vials) and a known volume of the required media was added (e.g. Simulated Gastric Fluid pH 1.2 [SGF], Simulated Fasted State Intestinal Fluid pH 6.5 [FaSSIF] or Phosphate Buffered Saline pH 7.4 [PBS]). The samples were subjected to vortex mixing for 2 minutes followed by agitation on a shaker for 24 hours at room temperature at 800 rpm.

[3] = type: in vitro ADME; details: rat plasma, 37° C.
Procedure: 5 μL of a 10 mM stock solution of the Examples were dissolved in 495 μL DMSO to afford 500 μL working solution Assay procedure:
98 μL plasma was added to each well of a 96-well reaction plate, using one plate per timepoint (Blank, TO, T10, T30, T60, and T120). 2 μL of working solution was added to each well of the reaction plates except Blank. Each plate was incubated at 37° C. for the indicated timepoint (0, 10, 30, 60, 120 minutes). At the end of incubation, 400 μL of stop solution (200 ng/mL tolbutamide and 200 ng/mL labetalol in 0.1% FA in ACN) was added to precipitate protein. The plates were then sealed and shaken for 20 minutes before centrifugation at 4000 rpm for 20 minutes. […] Formation of parent was also monitored as a metabolite.

[4] = Comparative solubility data for Reference Example 1 (thermodynamic and kinetic); type: physicochemical
[5] = simulated gastric fluid, SGF (pH 1.2)

## CC(C)(C)OC(=O)c1ccc2c(c1)nc(OCCOCCCCNCc1cc(F)c(OC(F)(F)F)c(F)c1)c1ccncc12 [Example 9, tert-butyl 5-(2-(4-((3,5-difluoro-4-(trifluoromethoxy)benzyl)amino)butoxy)ethoxy)benzo[c][2,6]naphthyridine-8-carboxylate]
In vitro
  CIint(mic): 78.9 µL/min/mg
  half-life at 1 µM: 29.3 min
[1]
  FaSSIF (pH 6.5) % remaining 1 h: 92.1%
  FaSSIF (pH 6.5) % remaining 6 h: 98.3%
  FaSSIF (pH 6.5) % remaining 24 h: 96.1%
  PBS (pH 7.4) % remaining 1 h: 80.9%
  PBS (pH 7.4) % remaining 6 h: 27.9%
  PBS (pH 7.4) % remaining 24 h: 10.0%
  SGF (pH 1.2) % remaining 1 h: 102.1%
  SGF (pH 1.2) % remaining 6 h: 57.9%
  SGF (pH 1.2) % remaining 24 h: 19.6%
[2]; [5]
  solubility kinetic at 24 h: 16.1 µg/mL (≈ 25.9 µM)
[2]; FaSSIF (pH 6.5)
  solubility kinetic at 24 h: 88.3 µg/mL (≈ 142 µM)

## CCOC(=O)c1ccc2c(c1)nc(OCCOCCCCNCc1cc(F)c(OC(F)(F)F)c(F)c1)c1ccncc12 [Example 8, ethyl 5-(2-(4-((3,5-difluoro-4-(trifluoromethoxy)benzyl)amino)butoxy)ethoxy)benzo[c][2,6]naphthyridine-8-carboxylate]
In vitro
  CIint(mic): 37.6 µL/min/mg
  half-life at 1 µM: 61.4 min
[3]
  % Example remaining 0 min: 100.0%
  Example concentration (nM) 0 min: 1687.0 nM
  % Example remaining 10 min: 0.2%
  Example concentration (nM) 10 min: 3.1 nM
[1]
  FaSSIF (pH 6.5) % remaining 1 h: 98.5%
  FaSSIF (pH 6.5) % remaining 6 h: 102.6%
  FaSSIF (pH 6.5) % remaining 24 h: 100.4%
  PBS (pH 7.4) % remaining 1 h: 63.2%
  PBS (pH 7.4) % remaining 6 h: 25.3%
  PBS (pH 7.4) % remaining 24 h: 7.6%
  SGF (pH 1.2) % remaining 1 h: 108.2%
  SGF (pH 1.2) % remaining 6 h: 63.8%
  SGF (pH 1.2) % remaining 24 h: 23.3%
[2]; [5]
  solubility kinetic at 24 h: 17.8 µg/mL (≈ 30 µM)
[2]; FaSSIF (pH 6.5)
  solubility kinetic at 24 h: 82.8 µg/mL (≈ 139 µM)

## CCC(=O)OCOC(=O)c1ccc2c(c1)nc(OCCOCCCCNCc1cc(F)c(OC(F)(F)F)c(F)c1)c1ccncc12 [Example 12, (propionyloxy)methyl 5-(2-(4-((3,5-difluoro-4-(trifluoromethoxy)benzyl)amino)butoxy)ethoxy)benzo[c][2,6]naphthyridine-8-carboxylate]
In vitro
  CIint(mic): 90.8 µL/min/mg
  half-life at 1 µM: 25.4 min
[1]
  FaSSIF (pH 6.5) % remaining 1 h: 94.9%
  FaSSIF (pH 6.5) % remaining 6 h: 96.5%
  FaSSIF (pH 6.5) % remaining 24 h: 99.8%
  PBS (pH 7.4) % remaining 1 h: 76.4%
  PBS (pH 7.4) % remaining 6 h: 6.3%
  PBS (pH 7.4) % remaining 24 h: 1.1%
  SGF (pH 1.2) % remaining 1 h: 101.3%
  SGF (pH 1.2) % remaining 6 h: 49.5%
  SGF (pH 1.2) % remaining 24 h: 10.1%
[2]; [5]
  solubility kinetic at 24 h: 7.4 µg/mL (≈ 11.4 µM)
[2]; FaSSIF (pH 6.5)
  solubility kinetic at 24 h: 97.5 µg/mL (≈ 150 µM)

## CC(C)OC(=O)OCOC(=O)c1ccc2c(c1)nc(OCCOCCCCNCc1cc(F)c(OC(F)(F)F)c(F)c1)c1ccncc12 [Example 14, ((isopropoxycarbonyl)oxy)methyl 5-(2-(4-((3,5-difluoro-4-(trifluoromethoxy)benzyl)amino)butoxy)ethoxy)benzo[c][2,6]naphthyridine-8-carboxylate]
In vitro
  CIint(mic): 1604.8 µL/min/mg
  half-life at 1 µM: 1.4 min
[1]
  FaSSIF (pH 6.5) % remaining 1 h: 98.2%
  FaSSIF (pH 6.5) % remaining 6 h: 93.6%
  FaSSIF (pH 6.5) % remaining 24 h: 102.8%
  PBS (pH 7.4) % remaining 1 h: 91.7%
  PBS (pH 7.4) % remaining 6 h: 34.3%
  PBS (pH 7.4) % remaining 24 h: 4.4%
  SGF (pH 1.2) % remaining 1 h: 105.1%
  SGF (pH 1.2) % remaining 6 h: 63.8%
  SGF (pH 1.2) % remaining 24 h: 23.2%
[2]; [5]
  solubility kinetic at 24 h: 15 µg/mL (≈ 22 µM)
[2]; FaSSIF (pH 6.5)
  solubility kinetic at 24 h: 100 µg/mL (≈ 147 µM)

## O=C(O)c1ccc2c(c1)nc(OCCOCCCCNCc1cc(F)c(OC(F)(F)F)c(F)c1)c1ccncc12 [Reference Example 1, 5-(2-(4-((3,5-difluoro-4-(trifluoromethoxy)benzyl)amino)butoxy)ethoxy)benzo[c][2,6]naphthyridine-8-carboxylic acid]
[4]; aqueous buffer, kinetic from dmso stock, kinetic, phosphate buffer, initial pH 7.4
  solubility: 31 µg/mL (≈ 54.8 µM)
[4]; aqueous buffer, thermodynamic from solid, thermodynamic, phosphate buffer, initial pH 1.0
  solubility: 256 µg/mL (≈ 453 µM)
[4]; aqueous buffer, thermodynamic from solid, thermodynamic, phosphate buffer, initial pH 7.4
  solubility: < 0.9 µg/mL
[4]; aqueous buffer, thermodynamic from solid, thermodynamic, phosphate buffer, initial pH 10.0
  solubility: < 0.9 µg/mL
[4]; thermodynamic from solid, thermodynamic, FaSSIF, initial pH 6.5
  solubility: 1.6 µg/mL (≈ 2.83 µM)

## CCOC(=O)OCOC(=O)c1ccc2c(c1)nc(OCCOCCCCNCc1cc(F)c(OC(F)(F)F)c(F)c1)c1ccncc12 [Example 13, ((ethoxycarbonyl)oxy)methyl 5-(2-(4-((3,5-difluoro-4-(trifluoromethoxy)benzyl)amino)butoxy)ethoxy)benzo[c][2,6]naphthyridine-8-carboxylate]
In vitro
  CIint(mic): 126.2 µL/min/mg
  half-life at 1 µM: 18.3 min
[3]
  % Example remaining 0 min: 100.0%
  Example concentration (nM) 0 min: 1601.0 nM
  % Example remaining 10 min: 0.1%
  Example concentration (nM) 10 min: 1.6 nM
[1]
  FaSSIF (pH 6.5) % remaining 1 h: 106.5%
  FaSSIF (pH 6.5) % remaining 6 h: 99.8%
  FaSSIF (pH 6.5) % remaining 24 h: 96.8%
  PBS (pH 7.4) % remaining 1 h: 84.3%
  PBS (pH 7.4) % remaining 6 h: 17.5%
  PBS (pH 7.4) % remaining 24 h: 20.5%
  SGF (pH 1.2) % remaining 1 h: 106.8%
  SGF (pH 1.2) % remaining 6 h: 63.6%
  SGF (pH 1.2) % remaining 24 h: 21.5%
[2]; [5]
  solubility kinetic at 24 h: 17.8 µg/mL (≈ 26.7 µM)
[2]; FaSSIF (pH 6.5)
  solubility kinetic at 24 h: 98 µg/mL (≈ 147 µM)

## CC(=O)OCOC(=O)c1ccc2c(c1)nc(OCCOCCCCNCc1cc(F)c(OC(F)(F)F)c(F)c1)c1ccncc12 [Example 10, acetoxymethyl 5-(2-(4-((3,5-difluoro-4-(trifluoromethoxy)benzyl)amino)butoxy)ethoxy)benzo[c][2,6]naphthyridine-8-carboxylate]
In vitro
  CIint(mic): 61.8 µL/min/mg
  half-life at 1 µM: 37.4 min
[3]
  % Example remaining 0 min: 100.0%
  Example concentration (nM) 0 min: 2023.5 nM
  % Example remaining 10 min: 0.1%
  Example concentration (nM) 10 min: 2.1 nM
[1]
  FaSSIF (pH 6.5) % remaining 1 h: 101.7%
  FaSSIF (pH 6.5) % remaining 6 h: 97.1%
  FaSSIF (pH 6.5) % remaining 24 h: 104.4%
  PBS (pH 7.4) % remaining 1 h: 78.8%
  PBS (pH 7.4) % remaining 6 h: 7.1%
  PBS (pH 7.4) % remaining 24 h: 1.1%
  SGF (pH 1.2) % remaining 1 h: 101.5%
  SGF (pH 1.2) % remaining 6 h: 55.9%
  SGF (pH 1.2) % remaining 24 h: 10.1%
[2]; [5]
  solubility kinetic at 24 h: 20.9 µg/mL (≈ 32.8 µM)
[2]; FaSSIF (pH 6.5)
  solubility kinetic at 24 h: 91.3 µg/mL (≈ 143 µM)

From patent US20260085069A1, “PRODRUGS” (Cambridge Enterprise Limited, priority 2022, published 2026)
